In publication PMC7894522, “Structure Based Design of Bicyclic Peptide Inhibitors of RbAp48” (Angewandte Chemie (International Ed. in English), 2020):
Starred links: 1 amine or outer side, 2 acyl side, 3 side chain; linkers in the order of their positions; H or OH if unused. Positions of bridges follow the written chain, without caps; N, C: chain ends. Residues, ends and D or L forms follow the SMILES beside them. TBMB = c1c(C[*:1])cc(C[*:3])cc1C[*:2]

How the values were obtained:
[1] = test system: U2OS cells; assay: Morphological cell painting assay; assay type: cell-based; settings: U2OS cells, 20 h, 579 parameters, fraction of significantly changed parameters vs DMSO; 10, 3 or 1 µM
Source text: Encouraged by the promising results from the pulldown experiment, and in order to get insight into bioactivity and possible mode of action, we analyzed peptide 33 in a morphological cell painting assay. The cell painting assay is a target agnostic assay which determines a cells morphological profile after treatment with a compound of interest and compares it to the profiles of a set of reference compounds. ^[22] By identifying reference compounds with a similar profile a hypothesis of the compounds mode of action can be generated based on their annotated targets. ^[23] U2OS cells were treated with our compound and 579 parameters were analyzed. […] We therefore synthesized a variant modified with an N‐terminal TAT sequence to enhance its permeability (compound 49, see Table 1 and Supplemental Figure 4). ^[24] […] Applying compound 49 to the cell painting assay led to an induction of 5.9 % and the corresponding profile was compared to the set of 3000 reference compounds. […] To validate this hypothesis, we exposed U2OS cells to compound 49 and evaluated the levels of p53 by Western blot. […] The exact mechanism by which the compounds elevate levels of p53 requires further investigation. However, it has previously been shown that the NuRD complex, of which RbAp48 is a core component, is able to deacetylate p53 and thereby modulate its stability. ^[26] The effect is mediated by the MTA family of proteins from which the compounds described here are derived. […]
The described assay follows closely the method described by Bray et al. Initially, 5 µl U2OS medium were added to each well of a 384 -well plate (PerkinElmer CellCarrier -384 Ultra). Subsequently, U2OS cell were seeded with a density of 1600 cells per well in 20 µl medium. The plate was incubated for 10 min at the ambient temperatu re, followed by an a dditional 4 h incubation (37 °C, 5 % CO2). Compound treatment was performed with the Echo 520 acoustic dispenser (Labcyte) at final concentrations of 10 µM, 3 µM or 1 µM. Incubation with compound was performed for 20 h (37 °C, 5 % CO2). Subsequently, mitoc hondria were stained with Mito Tracker Deep Red (Thermo Fisher Scientific, Cat. No. M22426). The Mito Tracker Deep Red stock solution (1 mM) was diluted to a final concentration of 100 nM in prewarmed medium. The medium was removed fr om the plate leaving 1 0 µl residual volume and 25 µl of the Mito Tracker solution were added to each well. 22 The plate was incubated for 30 min in darkness (37 °C, 5 % CO2). To fix the cells 7 µl of 18.5 % formaldehyde in PBS were added, resulting in a fi nal formaldehyde conce ntration of 3.7 %. Subsequently, the plate was incubated for another 20 min in darkness (RT) and washed three times with 70 µl of PBS. (Biotek Washer Elx405). Cells were permeabilized by addition of 25 µl 0.1 % Triton X -100 to each well, followed by 15 min incubation (RT) in darkness. The cells were washed three times with PBS leaving a final volume of 10 µl. To each well 25 µl of a staining solution were added, which contains 1 % BSA, 5 µl/mL Phalloidin (Thermo Fisher Scientific, A123 81), 25 µg/ml Concanav alin A (Thermo Fisher Scientific, Cat. […]
conjugate (Thermo Fisher Scientific, Cat. No. W11262) and […] SYTO 14 solution (Thermo Fisher Scientific, Cat. No. S7576). The plate is incubated for 30 min (RT) in darkness and washed three times with 70 µl PBS. After the final washing step the PBS was not aspirated. The plates were sealed and centrifuged for 1 min at 500 rpm.
The plates were prepare d in triplicates with shifted layouts to reduce plate effects and imaged using a Micro XL High-Content Screening System (Molecular Devices) in 5 channels (DAPI: Ex350 -400/ Em410- […]
The generated images were processed with the CellProfiler package (https://cellprofiler.org/, version 3.0.0) on a computing cluster of the Max Planck Society to extract 1716 cell features (parameters) per microscope site. The data was then further aggregated as medians per well (9 sites -> 1 well), then […]

[2] = target: RbAp48 (Homo sapiens, UniProt Q09028); assay: Isothermal titration calorimetry (direct and competitive); assay type: binding; design: Full length RbAp48 was cloned; His tag followed by 3C cleavage site (N, cleaved yes); made in house; host or cells: Sf9 insect cells; settings: competitive ITC with weak ligand 40
Protocol: The weak ligand interferes with binding of the strong ligand allowing the use of higher concentrations and therefore stronger signal. The actual affinity and thermodynamic parameters can then be calculated from the measured values.[ ^20 , ^21 ] The long linear peptide 2, monocyclic peptide 8, and bicyclic peptide 33 were analysed using this method and the results are reported in Table 2 (See Figure 4 A and Supplemental Figure 13–16). […] An effect which could not clearly be observed by the FP assay as it's lower limits were reached.
Protein expression and purification
RbAp48 was expressed and purified by the Dortmund Protein Facility. Full length RbAp48 was cloned into a pOPIN vector ligating it to an N-terminal His tag followed by a 3C cleavage site. The protein was expressed from Sf9 cells for 48 h. Cells were harvested and lysed and the protein was purified by loading onto a HisTrap FF crude 5 ml column followed by on-column cleavage using Precission protease. The cleaved protein was then further purified using a HiLoad 26/60 Superdex 200 column.
Fluorescence polarization assay […]
Isothermal Titration Calorimetry
Isothermal titration calorimetry measurements w ere performed using a Microcal ITC-200 device. The buffer for all measurements consisted of 20 mM Tris, 150 mM NaCl, pH 7.5 and all measurements were performed at 25°C in duplicate except for 8. RbAp48 was dialyzed overnight using a 10 kDa MWCO Slide-A-lizer dialysis membrane and peptide samples were dissolved in the dialysis buffer. Direct measurements of 40 were perfomed by titrating the peptide ( 800 µM) into the cell containing RbAp48 (40 µM) using 2 µl injection after an initial injection of 0.5 µl. […]
by competitive ITC where the protein is premixed with a weak ligand ( 40).[1] Competitive measurements were performed by titrating 2, 8 or 33 (300 µM) into the cell containing RbAp48 (30 µM) and 40 (416 µM). Other conditions were the same as for the direct measurement described above.
Ki was calculated according using the following formula: […]

Sequence of RbAp48 (Q09028 whole entry): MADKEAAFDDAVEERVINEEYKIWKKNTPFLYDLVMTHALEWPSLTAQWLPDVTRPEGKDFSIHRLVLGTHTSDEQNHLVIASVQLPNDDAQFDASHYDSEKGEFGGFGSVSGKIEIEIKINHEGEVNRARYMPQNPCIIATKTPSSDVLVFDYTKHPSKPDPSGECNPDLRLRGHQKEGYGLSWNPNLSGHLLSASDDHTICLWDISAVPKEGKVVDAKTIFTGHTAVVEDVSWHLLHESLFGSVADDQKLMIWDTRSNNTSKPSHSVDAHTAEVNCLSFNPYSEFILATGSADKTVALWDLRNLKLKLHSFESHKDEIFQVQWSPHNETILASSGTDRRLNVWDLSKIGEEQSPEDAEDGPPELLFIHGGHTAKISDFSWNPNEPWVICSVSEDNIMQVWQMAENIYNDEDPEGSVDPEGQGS

Kd [2]: 8.56 nM
SMILES: CC(=O)N[C@H]1CSCc2cc3cc(c2)CSC[C@@H](C(=O)N[C@@H](C)C(N)=O)NC(=O)[C@@H]2CCCN2C(=O)[C@H](CCCCN)NC(=O)[C@H](Cc2ccc(O)cc2)NC(=O)[C@@H]2CCCN2C(=O)[C@H](CCCNC(=N)N)NC(=O)[C@H](CCCNC(=N)N)NC(=O)[C@H](C)NC(=O)[C@H](CSC3)NC(=O)[C@H](CCCNC(=N)N)NC(=O)[C@H](CCCCN)NC(=O)[C@H]([C@@H](C)O)NC1=O [Peptide 33] (Ac-CTKRCARRPYKPCA-NH2; linker 1-5-13 via TBMB)
induction [1]: no induction
